Assay results taken from paper PMC7504360 (International Journal of Molecular Sciences, 2020).
Like-named read-outs stand apart in the source and are kept apart here. Square brackets hold non-standard residues; d marks the D form. Peptide text beside a SMILES is read from it.

Columns and labels:
[1] = system: all bacterial strains; assay: Mean MIC over all bacterial strains (GM); assay type: cell-based; details: mean MIC of all bacterial strains of Table 2
Experimental: (§1) Briefly, the microplates were inoculated with two-fold serial dilutions of each peptides in Mueller–Hinton (MH) media and then seeded with log-phase culture of aforementioned bacterial suspensions (2 × 10^5 CFU/mL). The microplates were incubated for 16 h at 37 °C, and absorbance was read at 600 nm using microplate reader SpectraMAX (Molecular Devices, San Jose, CA, USA).

[2] = system: sheep red blood cells (sRBCs); assay: Hemolytic activity; assay type: cell-based
Experimental: The hemolytic activity of all Pro-peptides were tested against sheep red blood cells (sRBCs) as described in previous reports. Fresh sRBCs were washed three times with phosphate-buffered saline (PBS) followed by centrifugation for 5 min at 2500 rpm at 4 °C. Peptides (0.2 to 100 μM) in PBS were incubated with 4% (v/v) sRBCs for 1 h at 37 °C. The contents were then centrifuged for 5 min at 1000 × g. The absorbance of the supernatant at 405 nm was used as a measure of hemolysis, and three times independent measurements were averaged. As a control, 100% hemolysis was obtained by treating sRBCs with melittin.

[3] = system: MDRAB 12010 (A. baumannii CCARM 12010)
Excerpt: (§2) Two strains of gram-negative bacteria, namely E. coli (KCTC 1682) and A. baumannii (KCCM 40203) from the Korean Collection for Type Cultures (KCTC) (Taejon, Korea) and Korean Culture Center of Microorganisms (KCCM) (Seoul, South Korea). Escherichia coli K1 strain RS218 (O18:K1:H7) was a gift from Prof. Jang-Won Yoon in Kangwon National University (Chuncheon, South Korea). Multidrug-resistant gram-negative bacteria (E. coli CCARM 1229, E. coli CCARM 1238, A. baumannii CCARM 12010, and A. baumannii CCARM 12220) were obtained from the Culture Collection of Antibiotic-Resistant Microbes (CCARM) at Seoul Women’s University (Seoul, South Korea).
as §1

[4] = system: A. baumannii (KCCM 40203)
Excerpt: as §2, §1

[5] = system: MDREC 1229 (E. coli CCARM 1229)
Excerpt: as §2, §1

[6] = system: MDREC 1238 (E. coli CCARM 1238)
Excerpt: as §2, §1

[7] = system: E. Coli
Excerpt: as §2, §1

[8] = system: MDRAB 12220 (A. baumannii CCARM 12220)
Excerpt: as §2, §1

[9] = system: RAW264.7 cells; assay: Cytotoxicity, WST-8 cell proliferation assay; assay type: cell-based, mouse; details: 24 h, WST-8, 450 nm, mean of three experiments
Experimental: Murine RAW264.7 macrophage cells were purchased from Korean Cell Line Bank (Seoul, South Korea). The cells were cultured in Dulbecco modified Eagle medium (DMEM) (Thermo Fischer Scientific Inc., MA, USA) supplemented with 10% fetal bovine serum, 100 U/mL penicillin, and […] streptomycin at 37 °C in a humidified 5% CO2 incubator. The cytotoxicity of peptides against RAW264.7 cells was determined using WST-8 Cell Proliferation Assay Kit (Biomax Co.,Ltd, Seoul, South Korea). Briefly, cells (1 × 10^5) were seeded in 96-well plated and then treated with 3.125, 6.25, 12.5, 25, and 50 μM of respective peptides for 24 h followed by addition of 10 μL of the WST-8 reagent for another 3 h incubation at 37 °C. The color intensity was read at 450 nm using a microplate reader.

[10] = system: chymotrypsin; assay: Protease stability assay (antimicrobial activity after protease digestion); assay type: in vitro ADME; details: peptide–enzyme 10,000:1, PBS, 6 h at 37 °C preincubation, then E. coli and A. baumannii 2 × 10^5 CFU/mL, 16 h at 37 °C, 600 nm, repeated three times
Experimental: (§3) For stability analysis, all Pro-peptides at their MICs were incubated with trypsin and chymotrypsin at the ratio of 10,000:1 (peptide–enzyme) in PBS for 6 h at 37 °C. After incubation, 100 μL of peptide-protease mixture was added to the 100 μL bacterial suspension (E. coli and A. baumannii, 2 × 10^5 CFU/mL) and further incubated for 16 h at 37 °C. Melittin was used as standard peptide, and bacterial suspension without peptide and protease served as control. The experiment was repeated three times, and the extent of bacterial growth was measured at 600 nm using a microplate reader.

[11] = system: Standard gram-negative bacteria; details: table row printed 'Standard gram-negative bacteria'; MH media, 2 × 10^5 CFU/mL, 16 h at 37 °C, absorbance 600 nm; average of three measurements
Excerpt: as §2, §1

[12] = system: trypsin; assay: Protease stability assay (antimicrobial activity after protease digestion); assay type: in vitro ADME; details: peptide–enzyme 10,000:1, PBS, 6 h at 37 °C preincubation, then E. coli and A. baumannii 2 × 10^5 CFU/mL, 16 h at 37 °C, 600 nm, repeated three times
Experimental: as §3

[13] = LPS neutralization, limulus amebocyte lysate (LAL) assay; assay type: biochemical, Escherichia coli O111:B4; details: 50 μM peptide, 20 ng/mL LPS, 30 min at 37 °C, LAL chromogenic kit, 405 nm; triplicate
Experimental: The LPS-neutralizing activity of all peptides was determined using the Pierce LAL chromogenic endotoxin quantitation kit (ThermoFisher Scientific, MA, USA). All peptides including standard (Polymixin B) at varying concentrations (3.12, 6.25, 12.5, 25, and 50 μM in endotoxin-free water) were allowed to bind with 20 ng/mL of LPS in a 96-well plate for 30 min at 37 °C. To this, an equal volume (10 μL) of LAL reagent was added and incubated for 10 min at 37 °C and then 20μL of LAL chromogenic substrate was added. After 15 min incubation at 37 °C, the reaction was stopped by 25% acetic acid and the reduction in yellow color formation due to the substrate was measured at 405 nm on an absorbance microplate reader. The experiment was conducted in triplicate, and the changes in absorbance due to peptide-LPS interaction are indicated as percent LPS neutralization.

Compound	HC10 (peptide concentration inducing 10% hemolysis) ([2]; red cells of sheep, 1 h) [µM]	Minimal Inhibitory Concentration (MIC100) ([3]; CCARM 12010, 16 h) [µM]	Minimal Inhibitory Concentration (MIC100) ([4]; KCCM 40203, 16 h) [µM]	Minimal Inhibitory Concentration (MIC100) ([5]; CCARM 1229, 16 h) [µM]	Minimal Inhibitory Concentration (MIC100) ([6]; CCARM 1238, 16 h) [µM]	Minimal Inhibitory Concentration (MIC100) ([7]; 16 h) [µM]	Minimal Inhibitory Concentration (MIC100) ([8]; CCARM 12220, 16 h) [µM]	survival rate of RAW264.7 cells ([9]; 25 μM) [%]	survival rate of RAW264.7 cells ([9]; 50 μM) [%]	peptide concentration up to which bacterial growth was not inhibited in the presence of protease [10] [µM]	Minimal Inhibitory Concentration (MIC100) [11] [µM]	further results
CC[C@H](C)[C@H](NC(=O)CN)C(=O)NCC(=O)N[C@@H](C)C(=O)N[C@H](C(=O)N[C@@H](CC(C)C)C(=O)N[C@@H](CCCCN)C(=O)N[C@H](C(=O)N[C@@H](CC(C)C)C(=O)N[C@H](C(=O)N[C@H](C(=O)NCC(=O)N[C@@H](CC(C)C)C(=O)N1CCC[C@H]1C(=O)N[C@@H](C)C(=O)N[C@@H](CC(C)C)C(=O)N[C@H](C(=O)N[C@@H](CO)C(=O)N[C@@H](Cc1c[nH]c2ccccc12)C(=O)N[C@H](C(=O)N[C@@H](CCCCN)C(=O)N[C@@H](CCCNC(=N)N)C(=O)N[C@@H](CCCCN)C(=O)N[C@@H](CCCNC(=N)N)C(=O)N[C@@H](CCC(N)=O)C(=O)N[C@@H](CCC(N)=O)C(N)=O)[C@@H](C)CC)[C@@H](C)CC)[C@@H](C)O)[C@@H](C)O)C(C)C)C(C)C [Melittin, reference compound]	–	–	–	–	–	–	–	–	–	–	–	GM (geometric mean of MIC values of all bacterial strains) [1]: 12.0 µM
CC[C@@H](C)[C@@H](NC(=O)[C@@H](C)NC(=O)[C@@H](CC(C)C)NC(=O)[C@@H](Cc1c[nH]c2ccccc12)NC(=O)[C@@H](CC(C)C)NC(=O)[C@H](N)CCCNC(=N)N)C(=O)N[C@H](Cc1c[nH]c2ccccc12)C(=O)N[C@H](CCCNC(=N)N)C(=O)N[C@H](CCCNC(=N)N)C(N)=O [Pro9-3D] (H-[dR][dL][dW][dL][dA][dI][dW][dR][dR]-NH2)	200	8	4	8	4	4	8	68	51.8	–	–	–
CC[C@H](C)[C@H](NC(=O)[C@H](C)NC(=O)[C@H](CC(C)C)NC(=O)[C@H](Cc1c[nH]c2ccccc12)NC(=O)[C@H](CC(C)C)NC(=O)[C@@H](N)CCCNC(=N)N)C(=O)N[C@@H](Cc1c[nH]c2ccccc12)C(=O)N[C@@H](CCCNC(=N)N)C(=O)N[C@@H](CCCNC(=N)N)C(N)=O [Pro9-3] (H-RLWLAIWRR-NH2)	200	16	16	16	32	16	16	95	94	> 64	16	–
CC[C@H](C)[C@H](NC(=O)[C@H](C)NC(=O)[C@H](CC(C)C)NC(=O)[C@H](Cc1c[nH]c2ccccc12)NC(=O)[C@H](CC(C)C)NC(=O)[C@H](CCCNC(=N)N)NC(=O)[C@@H](N)CCCNC(=N)N)C(=O)N[C@@H](Cc1c[nH]c2ccccc12)C(=O)N[C@@H](CCCNC(=N)N)C(=O)N[C@@H](CCCNC(=N)N)C(N)=O [Pro10-1] (H-RRLWLAIWRR-NH2)	–	–	–	–	–	–	–	90	87	> 64	16	peptide concentration up to which bacterial growth was not inhibited in the presence of protease [12]: > 64 µM; hemolysis ([2]; 100 μM peptide, 4% (v/v) sRBCs in PBS, 1 h at 37 °C, absorbance 405 nm, three measurements averaged): no hemolytic activity; HC10 (peptide concentration inducing 10% hemolysis) ([2]; heparinized sheep red blood cells, 200 μM entered when no detectable hemolysis was observed at 100 μM): 200 µM; Minimal Inhibitory Concentration (MIC100) ([3]; MDRAB 12010, MH media, 2 × 10^5 CFU/mL, 16 h at 37 °C, absorbance 600 nm, average of three measurements): 8 µM; Minimal Inhibitory Concentration (MIC100) ([4]; A. baumannii, MH media, 2 × 10^5 CFU/mL, 16 h at 37 °C, absorbance 600 nm, average of three measurements): 8 µM; Minimal Inhibitory Concentration (MIC100) ([5]; MDREC 1229, MH media, 2 × 10^5 CFU/mL, 16 h at 37 °C, absorbance 600 nm, average of three measurements): 8 µM; Minimal Inhibitory Concentration (MIC100) ([6]; MDREC 1238, MH media, 2 × 10^5 CFU/mL, 16 h at 37 °C, absorbance 600 nm, average of three measurements): 32 µM; Minimal Inhibitory Concentration (MIC100) ([7]; table row printed 'E. Coli', MH media, 2 × 10^5 CFU/mL, 16 h at 37 °C, absorbance 600 nm, average of three measurements): 16 µM; Minimal Inhibitory Concentration (MIC100) ([8]; MDRAB 12220, MH media, 2 × 10^5 CFU/mL, 16 h at 37 °C, absorbance 600 nm, average of three measurements): 16 µM
polymyxin B [reference compound]	–	–	–	–	–	–	–	–	–	–	–	inhibition of the activation of LPS (LPS neutralization) [13]: 67.4%
